Biological target: T1, Androgen Receptor (AR) (Homo sapiens, UniProt P10275)
T1 construct: endogenous in cells; host or cells: VCaP
T1 sequence (P10275 1-920): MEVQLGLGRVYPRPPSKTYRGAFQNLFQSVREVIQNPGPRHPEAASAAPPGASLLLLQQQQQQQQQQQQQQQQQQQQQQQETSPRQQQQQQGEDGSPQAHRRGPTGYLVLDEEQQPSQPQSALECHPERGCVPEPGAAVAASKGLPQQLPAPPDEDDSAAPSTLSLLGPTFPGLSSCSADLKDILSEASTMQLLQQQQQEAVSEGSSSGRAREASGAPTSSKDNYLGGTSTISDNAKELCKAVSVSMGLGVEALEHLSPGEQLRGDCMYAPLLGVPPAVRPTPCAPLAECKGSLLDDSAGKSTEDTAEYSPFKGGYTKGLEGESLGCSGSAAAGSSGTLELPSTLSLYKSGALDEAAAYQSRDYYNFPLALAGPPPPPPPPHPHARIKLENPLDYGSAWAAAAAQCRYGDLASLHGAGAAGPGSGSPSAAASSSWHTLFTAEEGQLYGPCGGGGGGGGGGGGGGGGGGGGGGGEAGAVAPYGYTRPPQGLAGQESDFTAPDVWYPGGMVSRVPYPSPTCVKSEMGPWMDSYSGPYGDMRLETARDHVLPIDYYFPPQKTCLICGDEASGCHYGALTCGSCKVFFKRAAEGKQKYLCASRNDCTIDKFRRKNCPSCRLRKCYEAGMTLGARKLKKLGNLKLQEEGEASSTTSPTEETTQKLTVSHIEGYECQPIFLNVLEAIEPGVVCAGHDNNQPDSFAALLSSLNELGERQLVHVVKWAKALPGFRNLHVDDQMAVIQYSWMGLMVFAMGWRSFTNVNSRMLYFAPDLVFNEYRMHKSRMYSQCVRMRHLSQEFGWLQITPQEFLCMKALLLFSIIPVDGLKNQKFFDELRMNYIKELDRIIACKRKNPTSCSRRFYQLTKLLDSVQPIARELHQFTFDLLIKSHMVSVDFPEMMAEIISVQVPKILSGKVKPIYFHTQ
Assay: AR immunofluorescence staining, high content imager, VCaP cells
Type: cell-based
Details: for DC50: AR degradation by immunofluorescence; for Dmax: maximal AR degradation
Method: AR Immunofluorescence Staining of Cells for the High Content Imager was performed as follows: Following treatment of the cells with compound (using the central 60 wells of a 96-well plate), media was removed by aspiration, followed by addition of 50 μL per well of 4% paraformaldehyde (PFA) in PBS supplemented with 2 mM MgCl2 and 2 mM CaCl2. Fixed cells were incubated at RT for 15 minutes. For particularly low adherence cell lines (e.g., VCaP), a 2× solution of 8% PFA was added directly to wells instead. Cells were washed once with 200 μL PBS/well. To permeabilize cells 50 μL/well of 0.1% Triton X-100 in PBS was added and incubated for 5 minutes. Cells were washed once with 200 μL PBSS/well. 100 μL/well of Licor Odyssey Blocking Buffer was added for 1 hour at 20° C. Wells were aspirated and AR antibody (1:1000 in Licor Odyssey blocking buffer; 50 μL/well; CST 5153s) was added. Plates were incubated overnight at 4° C. Plates were washed 3 times with 200 EL PBS/well. The appropriate secondary antibody was added (50 μL/well; diluted in Licor Odyssey blocking buffer) and incubated for 1 hour at RT in the dark as prepared below using Anti-rabbit FITC (1:5000; […]) and Phalloidin-Alexafluor 648 (1:500; […]). Cells were washed once with 200 μL PBS/well. 50 μL DAPI or Hoechst 33342 diluted 1:1000 in Licor Odyssey blocking buffer was added to the wells. Cells were washed 3 times with 200 μL PBS/well. The plates were covered with a clear plastic sealer and refrigerated in the dark until ready to analyze. The cells were analyzed using a Molecular Devices IXM high content imager and analyzed using Molecular Devices metaXpress software suite.

| Compound | DC50 | Dmax |
| --- | --- | --- |
| Cc1cc(O[C@H]2C(C)(C)[C@H](NC(=O)c3ccc(N4CCC(CN5CCOCCCCOc6ccc(C(=O)NC7CCC(=O)NC7=O)cc6O[C@H]6C[C@H]5C6)CC4)cc3)C2(C)C)cc(C)c1C#N (stereo partly shown) [Compound 74, (1r,18r)-N-(2,6-dioxopiperidin-3-yl)-17-{[1-(4-{[(1r,3r)-3-(4-cyano-3,5-dimethylphenoxy)-2,2,4,4-tetramethylcyclobutyl]carbamoyl}phenyl)piperidin-4-yl]methyl}-2,9,14-trioxa-17-azatricyclo[16.1.1.0^3,8]icosa-3(8),4,6-triene-5-carboxamide] | < 1 nM | < 50% |
| COc1cc(C(=O)NC2CCC(=O)NC2=O)ccc1N1CCN(C[C@H]2CN(c3ccc(C(=O)N[C@H]4C(C)(C)[C@H](Oc5cc(C)c(C#N)c(C)c5)C4(C)C)cc3)CCO2)CC1 (stereo partly drawn) [Compound 56, N-(2,6-dioxopiperidin-3-yl)-3-methoxy-4-(4-{[(2S)-4-(4-{[(1r,3r)-3-(4-cyano-3,5-dimethylphenoxy)-2,2,4,4-tetramethylcyclobutyl]carbamoyl}phenyl)morpholin-2-yl]methyl}piperazin-1-yl)benzamide] | < 1 nM | ≥ 70% |
| Cc1cc(O[C@H]2C(C)(C)[C@H](NC(=O)c3ccc(N4CCC5(CC4)CN([C@H]4C[C@H](Oc6ccc(C(=O)NC7CCC(=O)NC7=O)cc6)C4)CCO5)cc3)C2(C)C)cc(C)c1C#N (stereo partly shown) [Compound 68, N-[(1r,3r)-3-(4-cyano-3,5-dimethylphenoxy)-2,2,4,4-tetramethylcyclobutyl]-4-{4-[(1r,3r)-3-{4-[(2,6-dioxopiperidin-3-yl)carbamoyl]phenoxy}cyclobutyl]-1-oxa-4,9-diazaspiro[5.5]undecan-9-yl}benzamide] | 1 to 10 nM | 50 to 70% |
| N#Cc1ccc(O[C@H]2CC[C@H](NC(=O)c3ccc(N4CCC(CN5CCN(c6ccc(C(=O)NC7CCC(=O)NC7=O)c(F)c6)CC5)CC4)nn3)CC2)cc1Cl (stereo partly drawn) [Compound 26, N-((1R,4R)-4-(3-chloro-4-cyanophenoxy)cyclohexyl)-6-(4-((4-(4-((2,6-dioxopiperidin-3-yl)carbamoyl)-3-fluorophenyl)piperazin-1-yl)methyl)piperidin-1-yl)pyridazine-3-carboxamide] | < 1 nM | ≥ 70% |
| Cc1cc(O[C@H]2C(C)(C)[C@H](NC(=O)c3ccc(N4CCO[C@@H](CN5CCN(c6ccc(C(=O)N[C@@H]7CCC(=O)NC7=O)c(F)c6)CC5)C4)cc3)C2(C)C)cc(C)c1C#N [Compound 75, N-[(3R)-2,6-dioxopiperidin-3-yl]-2-fluoro-4-(4-{[(2S)-4-(4-{[(1r,3r)-3-(4-cyano-3,5-dimethylphenoxy)-2,2,4,4-tetramethylcyclobutyl]carbamoyl}phenyl)morpholin-2-yl]methyl}piperazin-1-yl)benzamide] | 1 to 10 nM | < 50% |
| N#Cc1ccc(O[C@H]2CC[C@H](NC(=O)c3ccc(N4CCC(CN5CCN(c6ccc(C(=O)NC7CCC(=O)NC7=O)cn6)CC5)CC4)nn3)CC2)cc1Cl (stereo partly drawn) [Compound 30, N-((1R,4R)-4-(3-chloro-4-cyanophenoxy)cyclohexyl)-6-(4-((4-(5-((2,6-dioxopiperidin-3-yl)carbamoyl)pyridin-2-yl)piperazin-1-yl)methyl)piperidin-1-yl)pyridazine-3-carboxamide] | < 1 nM | ≥ 70% |
| N#Cc1ccc(O[C@H]2CC[C@H](NC(=O)c3ccc(N4CCC(CN5CCN(c6cccc(C(=O)NC7CCC(=O)NC7=O)c6)CC5)CC4)nn3)CC2)cc1Cl (stereo partly drawn) [Compound 29, N-((1R,4R)-4-(3-chloro-4-cyanophenoxy)cyclohexyl)-6-(4-((4-(3-((2,6-dioxopiperidin-3-yl)carbamoyl)phenyl)piperazin-1-yl)methyl)piperidin-1-yl)pyridazine-3-carboxamide] | < 1 nM | < 50% |
| COc1cc(O[C@H]2C(C)(C)[C@H](NC(=O)c3ccc(N4CCO[C@H](CN(C(C)C)[C@H]5C[C@@H](Oc6ccc(C(=O)N[C@H]7CCC(=O)NC7=O)c(F)c6)C5)C4)cc3)C2(C)C)ccc1C#N [Compound 43, 4-[(2R)-2-([isopropyl[(1r,3r)-3-(4-[[(3S)-2,6-dioxopiperidin-3-yl]carbamoyl]-3-fluorophenoxy)cyclobutyl]amino]methyl)morpholin-4-yl]-N-[(1r,3r)-3-(4-cyano-3-methoxyphenoxy)-2,2,4,4-tetramethylcyclobutyl]benzamide] | < 1 nM | ≥ 70% |

Other lines, results leading:

| DC50 | Dmax | Compound |
| --- | --- | --- |
| < 1 nM | ≥ 70% | COc1cc(O[C@H]2C(C)(C)[C@H](NC(=O)c3ccc(N4CCC(CN5CCN(c6cnc(C(=O)N[C@H]7CCC(=O)NC7=O)nc6)CC5)CC4)cc3)C2(C)C)ccc1C#N [Compound 39, 5-(4-((1-(4-(((1r,3r)-3-(4-cyano-3-methoxyphenoxy)-2,2,4,4-tetramethylcyclobutyl)carbamoyl)phenyl)piperidin-4-yl)methyl)piperazin-1-yl)-N—((S)-2,6-dioxopiperidin-3-yl)pyrimidine-2-carboxamide] |
| < 1 nM | 50 to 70% | Cc1cc(O[C@H]2C(C)(C)[C@H](NC(=O)c3ccc(N4CC5(C4)CN([C@H]4C[C@H](Oc6ccc(C(=O)N[C@H]7CCC(=O)NC7=O)c(F)c6)C4)CCO5)cc3)C2(C)C)cc(C)c1C#N [Compound 63, N-[(1r,3r)-3-(4-cyano-3,5-dimethylphenoxy)-2,2,4,4-tetramethylcyclobutyl]-4-{8-[(1r,3r)-3-(4-{[(3S)-2,6-dioxopiperidin-3-yl]carbamoyl}-3-fluorophenoxy)cyclobutyl]-5-oxa-2,8-diazaspiro[3.5]nonan-2-yl}benzamide] |
| < 1 nM | 50 to 70% | CC1(C)[C@H](NC(=O)c2ccc(N3CCC(CN4CCN(c5ccc(C(=O)NC6CCC(=O)NC6=O)c(F)c5)CC4)CC3)nn2)C(C)(C)[C@H]1Oc1ccc(C#N)c(Cl)c1 (stereo partly drawn) [Compound 17, N-((1R,3R)-3-(3-chloro-4-cyanophenoxy)-2,2,4,4-tetramethylcyclobutyl)-6-(4-((4-(4-((2,6-dioxopiperidin-3-yl)carbamoyl)-3-fluorophenyl)piperazin-1-yl)methyl)piperidin-1-yl)pyridazine-3-carboxamide] |
| < 1 nM | ≥ 70% | Cc1cc(O[C@H]2C(C)(C)[C@H](NC(=O)c3ccc(N4CCO[C@@H](CN5CCN(c6ccc(C(=O)N[C@H]7CCC(=O)NC7=O)c(F)c6)CC5)C4)cc3)C2(C)C)cc(C)c1C#N [Compound 52, N-[(3S)-2,6-dioxopiperidin-3-yl]-2-fluoro-4-(4-{[(2S)-4-(4-{[(1r,3r)-3-(4-cyano-3,5-dimethylphenoxy)-2,2,4,4-tetramethylcyclobutyl]carbamoyl}phenyl)morpholin-2-yl]methyl}piperazin-1-yl)benzamide] |
| 1 to 10 nM | < 50% | Cc1cc(O[C@H]2C(C)(C)[C@H](NC(=O)c3ccc(N4CCC(CN5CCOCCCCCOc6ccc(C(=O)NC7CCC(=O)NC7=O)cc6O[C@H]6C[C@H]5C6)CC4)cc3)C2(C)C)cc(C)c1C#N (stereo partly shown) [Compound 72, (1r,19r)-N-(2,6-dioxopiperidin-3-yl)-18-{[1-(4-{[(1r,3r)-3-(4-cyano-3,5-dimethylphenoxy)-2,2,4,4-tetramethylcyclobutyl]carbamoyl}phenyl)piperidin-4-yl]methyl}-2,9,15-trioxa-18-azatricyclo[17.1.1.0^3,8]henicosa-3(8),4,6-triene-5-carboxamide] |
| < 1 nM | 50 to 70% | Cc1cc(O[C@H]2C(C)(C)[C@H](NC(=O)c3ccc(N4CC(CN5CC(c6ccc(C(=O)N[C@H]7CCC(=O)NC7=O)c(F)c6)C5)C4)cc3)C2(C)C)cc(C)c1C#N [Compound 71, N-[(3S)-2,6-dioxopiperidin-3-yl]-2-fluoro-4-(1-{[1-(4-{[(1r,3r)-3-(4-cyano-3,5-dimethylphenoxy)-2,2,4,4-tetramethylcyclobutyl]carbamoyl}phenyl)azetidin-3-yl]methyl}azetidin-3-yl)benzamide] |
